Read-outs that look alike come from different tables or passages of the source. Where no end group is shown, it is not given here.
Columns and labels:
[1] = Circular dichroism spectroscopy, helical residues per peptide chain; format: physicochemical; details: calculated from [θ]222
In short: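 CD spectra recorded at 20 °C, four scans averaged; peptide concentration checked by A280 with the single-Trp extinction coefficient of 5700 M^−1. Helical residues per chain calculated as −[θ]222×30/28,000 from mean residue ellipticity at 222 nm.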

ROS 17/2.8 cells = target: T1, ROS 17/2.8 cells (Rattus norvegicus, UniProt P25961); details: position-20 substitutions in PTH(1-31)NH2; cited from earlier work
T1 construct: ROS 17/2.8 cells are rat osteosarcoma cells and express the endogenous PTHR; host or cells: ROS 17/2.8 cells
T1 sequence (P25961 27-591): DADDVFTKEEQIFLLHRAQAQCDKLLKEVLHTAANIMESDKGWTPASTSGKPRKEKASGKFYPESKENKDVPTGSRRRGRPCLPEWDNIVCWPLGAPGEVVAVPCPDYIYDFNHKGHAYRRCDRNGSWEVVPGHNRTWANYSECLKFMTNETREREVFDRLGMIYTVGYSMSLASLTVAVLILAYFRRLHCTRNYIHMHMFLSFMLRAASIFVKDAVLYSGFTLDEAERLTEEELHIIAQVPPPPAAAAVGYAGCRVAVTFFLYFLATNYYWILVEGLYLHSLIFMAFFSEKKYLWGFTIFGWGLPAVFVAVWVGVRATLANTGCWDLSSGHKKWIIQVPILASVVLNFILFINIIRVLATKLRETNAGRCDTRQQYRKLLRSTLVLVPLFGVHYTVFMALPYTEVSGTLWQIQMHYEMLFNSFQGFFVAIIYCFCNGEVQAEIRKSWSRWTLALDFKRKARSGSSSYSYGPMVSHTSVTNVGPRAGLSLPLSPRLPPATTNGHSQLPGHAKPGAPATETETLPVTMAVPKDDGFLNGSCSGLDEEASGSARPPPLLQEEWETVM

PTHR-delNt = target: T2, PTHR-delNt (Homo sapiens, UniProt Q03431, DEL24-181); experiment: Competition binding in COS-7 cell membranes with 125I-[Aib1,3,M]PTH(1-15)NH2 tracer; details: for IC50: COS-7 membranes cotransfected with negative-dominant Gαs, read-out: PTHR-delNT (COS-7) IC50
T2 construct: expressed in transfected cells; host or cells: COS-7 cells, transient co-transfection; membranes prepared
T2 sequence (Q03431 with tags, fused parts or gaps DEL24-181): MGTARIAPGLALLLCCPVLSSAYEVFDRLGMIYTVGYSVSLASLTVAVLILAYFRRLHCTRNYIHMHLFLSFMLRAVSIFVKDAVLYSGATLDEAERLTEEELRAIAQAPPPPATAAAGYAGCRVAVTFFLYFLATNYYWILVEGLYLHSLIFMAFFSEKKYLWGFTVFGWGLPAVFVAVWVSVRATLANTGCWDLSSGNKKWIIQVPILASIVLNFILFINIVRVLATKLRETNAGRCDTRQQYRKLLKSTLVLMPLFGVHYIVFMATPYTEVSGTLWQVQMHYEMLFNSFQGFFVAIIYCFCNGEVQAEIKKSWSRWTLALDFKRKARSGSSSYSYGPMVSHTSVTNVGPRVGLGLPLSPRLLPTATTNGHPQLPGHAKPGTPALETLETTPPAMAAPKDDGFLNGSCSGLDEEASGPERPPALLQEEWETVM
In short: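 Membranes (20 µg/well) from COS-7 cells co-transfected with human PTHR lacking residues 24–181 plus dominant-negative Gαs, incubated 90 min at 21 °C with 125I-[Aib1,3,M]PTH(1-15)NH2 and unlabeled peptide (3×10^−9 to 1×10^−5 M), then filtered and gamma-counted. Non-specific binding with 1×10^−6 M [Aib1,3,M]PTH(1-15)NH2; IC50 by four-parameter logistic fit, extrapolated to reference maximal inhibition where incomplete.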

[2] = [Ala1,Arg19]hPTH(1-31)NH2 analogs

Molecule | CD helical residues ([1]; hPTH(1-31)NH2 analogs) | IC50 (PTHR-delNt; hPTH(1-31)NH2 analogs) | CD helical residues [1, 2] | reduction (alteration) of binding affinity for PTHR-delNt relative to parent peptide (PTHR-delNt; COS-7 membranes, versus the respective parent peptide) | IC50 (PTHR-delNt; [2]) | reduction of cAMP-stimulating potency (ROS 17/2.8 cells) | effect on binding to PTHR-delNt (in words) (PTHR-delNt; COS-7 membranes)
AVSEIQLMHNLGKHLNSMRRVEWLRKKEQDV-NH2 [Leu^28→Glu] | – | – | 5 | less than three-fold | 0.974 ± 0.252 µM | – | only mildly impaired binding to PTHR-delNt
SVSEIQLMHNLGKHLNAMERVEWLRKKLQDV-NH2 [Ser^17→Ala] | 10 | 4.58 µM | – | – | – | – | –
SVSEIQLMHNLGKHLNSAERVEWLRKKLQDV-NH2 [Met^18→Ala] | 10 | 8.8 µM | – | – | – | – | –

Continued by falling IC50 (PTHR-delNt; hPTH(1-31)NH2 analogs), values first:

CD helical residues ([1]; hPTH(1-31)NH2 analogs) | IC50 (PTHR-delNt; hPTH(1-31)NH2 analogs) | CD helical residues [1, 2] | reduction (alteration) of binding affinity for PTHR-delNt relative to parent peptide (PTHR-delNt; COS-7 membranes, versus the respective parent peptide) | IC50 (PTHR-delNt; [2]) | Molecule | reduction of cAMP-stimulating potency (ROS 17/2.8 cells) | effect on binding to PTHR-delNt (in words) (PTHR-delNt; COS-7 membranes)
9 | 10.6 µM | – | – | – | CC[C@H](C)[C@H](NC(=O)[C@H](CCC(=O)O)NC(=O)[C@H](CO)NC(=O)[C@@H](NC(=O)[C@@H](N)CO)C(C)C)C(=O)N[C@@H](CCC(N)=O)C(=O)N[C@@H](CC(C)C)C(=O)N[C@@H](CCSC)C(=O)N[C@@H](Cc1c[nH]cn1)C(=O)N[C@@H](CC(N)=O)C(=O)N[C@@H](CC(C)C)C(=O)NCC(=O)N[C@@H](CCCCN)C(=O)N[C@@H](Cc1c[nH]cn1)C(=O)N[C@@H](CC(C)C)C(=O)N[C@@H](CC(N)=O)C(=O)N[C@@H](CO)C(=O)N[C@@H](CCSC)C(=O)N[C@@H](CCC(=O)O)C(=O)N[C@@H](CCCNC(N)=O)C(=O)N[C@H](C(=O)N[C@@H](CCC(=O)O)C(=O)N[C@@H](Cc1c[nH]c2ccccc12)C(=O)N[C@@H](CC(C)C)C(=O)N[C@@H](CCCNC(=N)N)C(=O)N[C@@H](CCCCN)C(=O)N[C@@H](CCCCN)C(=O)N[C@@H](CC(C)C)C(=O)N[C@@H](CCC(N)=O)C(=O)N[C@@H](CC(=O)O)C(=O)N[C@H](C(N)=O)C(C)C)C(C)C [Arg^20→Cit] | 8 fold | –
10 | 1.54 µM | – | – | – | SVSEIQLMHNLGKHLNSMERVEWLRKKLQAV-NH2 [Asp^30→Ala] | – | –
